Tests used:
[1] = system: Phakopsora pachyrhizi (F129L); assay: Protective control of soybean rust on detached soybean leaves (PHAKPA P1 DL), F129L isolate; type: in vivo
[2] = system: Alternaria solani (F129L); assay: Micro titer plate test against early blight (ALTESO F129L); type: cell-based; conditions: 4 ppm, 7 days after inoculation, relative to compound-free control (100%)
[3] = system: Phakopsora pachyrhizi (wt); assay: Protective control of soybean rust on detached soybean leaves (PHAKPA P1 DL), Qo inhibitor-sensitive wt isolate; type: in vivo
Cercospora sojina = type: cell-based; conditions: 4 ppm, 7 days after inoculation, relative to compound-free control (100%)
[4] = system: Phakopsora pachyrhizi (F129L); assay: Protective control of soybean rust on soybeans (PHAKPA P6); type: in vivo; conditions: for % PHAKPA (F129L) Disease level P6 at 4 ppm: protective P6, 4 ppm; for % PHAKPA (F129L) Disease level P6 at 16 ppm: protective P6, 16 ppm
[5] = system: Phakopsora pachyrhizi (F129L); assay: Protective control of soybean rust on soybeans (PHAKPA P2); type: in vivo; conditions: for % PHAKPA (F129L) Disease level P2 at 4 ppm: protective P2, 4 ppm; for % PHAKPA (F129L) Disease level P2 at 16 ppm: protective P2, 16 ppm

Structure (SMILES) | % PHAKPA (F129L) Disease level P6 at 4 ppm ([4]; soybean rust F129L isolate) | % PHAKPA (F129L) Disease level P6 at 16 ppm ([4]; soybean rust F129L isolate) | % PHAKPA (F129L) Disease level P2 at 4 ppm ([5]; soybean rust F129L isolate) | % PHAKPA (F129L) Disease level P2 at 16 ppm ([5]; soybean rust F129L isolate) | % PHAKPA (F129L) Disease level P6 at 4 ppm ([4]; F129L isolate) | % PHAKPA (F129L) Disease level P6 at 16 ppm ([4]; F129L isolate) | % PHAKPA (F129L) Disease level P2 at 4 ppm ([5]; F129L isolate) | % PHAKPA (F129L) Disease level P2 at 16 ppm ([5]; F129L isolate) | also measured
Cc1cccc(-n2nnn(C)c2=O)c1COc1ccn(-c2ccc(Cl)cc2)n1 [drawing 934, reference compound] | – | – | – | – | – | – | – | – | PHAKPA P1 DL Disease level (%) Qo I-resistant F129L isolate (100 % F129L) ([1]; test concentration 0.3 ppm): 88%; PHAKPA P1 DL Disease level (%) Qo I-resistant F129L isolate (100 % F129L) ([1]; test concentration 1 ppm): 90%; PHAKPA P1 DL Disease level (%) Qo I-resistant F129L isolate (100 % F129L) ([1]; test concentration 3 ppm): 95%; PHAKPA P1 DL Disease level (%) Qo I-resistant F129L isolate (100 % F129L) ([1]; test concentration 10 ppm): 92%; PHAKPA P1 DL Disease level (%) Qo I-resistant F129L isolate (100 % F129L) ([1]; test concentration 30 ppm): 90%; PHAKPA P1 DL Disease level (%) Qo I-resistant F129L isolate (100 % F129L) ([1]; test concentration 100 ppm): 65%; PHAKPA P1 DL Disease level (%) Qo I-resistant F129L isolate (100 % F129L) ([1]; test concentration 300 ppm): 52%
CO/N=C(/C(=O)OC)c1cccc(C)c1CO/N=C(\C)c1cccc(OC(F)(F)F)c1 [drawing 940] | – | – | – | – | – | – | – | – | Fungal growth (%) ALTESO F129L [2]: 87%
Cc1cccc(-n2nnn(C)c2=O)c1COc1ccn(-c2ccc(Cl)cc2)n1 [drawing 932, reference compound] | – | – | – | – | – | – | – | – | PHAKPA P1 DL Disease level (%) Qo I-sensitive wt isolate (0 % F129L) ([3]; test concentration 0.3 ppm): 78%; PHAKPA P1 DL Disease level (%) Qo I-sensitive wt isolate (0 % F129L) ([3]; test concentration 1 ppm): 80%; PHAKPA P1 DL Disease level (%) Qo I-sensitive wt isolate (0 % F129L) ([3]; test concentration 3 ppm): 77%; PHAKPA P1 DL Disease level (%) Qo I-sensitive wt isolate (0 % F129L) ([3]; test concentration 10 ppm): 48%; PHAKPA P1 DL Disease level (%) Qo I-sensitive wt isolate (0 % F129L) ([3]; test concentration 30 ppm): 30%; PHAKPA P1 DL Disease level (%) Qo I-sensitive wt isolate (0 % F129L) ([3]; test concentration 100 ppm): 18%; PHAKPA P1 DL Disease level (%) Qo I-sensitive wt isolate (0 % F129L) ([3]; test concentration 300 ppm): 5%
CO/N=C(/C(=O)OC)c1cccc(C)c1CO/N=C(/c1cccc(Cl)c1)C1CC1 [drawing 966] | – | – | – | – | – | – | – | – | Fungal growth (%) CERCSO (Cercospora sojina): 61%
CO/N=C(/C(=O)OC)c1cccc(C)c1CO/N=C(\OC)c1cccc(C(F)(F)F)c1 | – | – | – | – | – | – | – | – | Fungal growth (%) CERCSO (Cercospora sojina): 56%
CNC(=O)/C(=N/OC)c1cccc(C)c1CO/N=C(\C)c1ccc(OC(F)(F)F)cc1F [compound 270] | 0% | 1% | 3% | 0% | – | – | – | – | –
CO/N=C(/C(=O)OC)c1cccc(C)c1CO/N=C(\C)c1cccc(F)c1C(F)(F)F [compound 330] | 93% | 17% | 83% | 24% | – | – | – | – | –
CO/N=C(/C(=O)OC)c1cccc(C)c1CO/N=C(\C)c1ccccc1C#N [compound 224] | 100% | 100% | 97% | 100% | – | – | – | – | –
CNC(=O)/C(=N/OC)c1ccccc1CO/N=C(\C)c1cc(F)ccc1F [reference compound] | – | – | – | – | – | – | – | – | PHAKPA (F129L) Disease level (%) P6 at 16 ppm ([4]; protective, inoculation six days after spraying, 16 ppm, % diseased leaf area): 22%; PHAKPA (F129L) Disease level (%) P2 at 16 ppm ([5]; protective, inoculation 2 days after spraying, 16 ppm, % diseased leaf area): 1%
CCC/C(=N\OCc1c(C)cccc1/C(=N\OC)C(=O)OC)c1ccccc1 [compound 387] | – | – | – | – | 80% | 47% | 60% | 30% | –
CNC(=O)/C(=N/OC)c1cccc(C)c1CO/N=C(\C)c1c(Cl)ccc(Cl)c1OC(F)(F)F [compound 441] | – | – | – | – | 97% | 50% | 100% | 43% | –
CCC/C(=N\OCc1c(C)cccc1/C(=N\OC)C(=O)NC)c1ccccc1 [compound 388] | – | – | – | – | 3% | 0% | 1% | 0% | –
CO/C=C(/C(=O)OC)c1cccc(C)c1CO/N=C(\C)c1ccc(OC(F)(F)F)cc1Cl [compound 463] | – | – | – | – | 3% | 0% | 6% | 0% | –
CNC(=O)/C(=N/OC)c1cccc(C)c1CO/N=C(\COC)c1ccccc1 [compound 295] | 11% | 0% | 2% | 0% | – | – | – | – | –
CO/N=C(/C(=O)OC)c1cccc(C)c1CO/N=C(\C)c1ccc(OC(F)(F)F)cc1C [compound 259] | 93% | 40% | 80% | 17% | – | – | – | – | –
CNC(=O)/C(=N/OC)c1cccc(C)c1CO/N=C(\C)c1ccc(Cl)c(Cl)c1C(F)(F)F [compound 431] | – | – | – | – | 40% | 12% | 32% | 7% | –
CO/N=C(/C(=O)OC)c1cccc(C)c1CO/N=C(\C)c1ccc(Cl)c(Cl)c1C(F)(F)F [compound 429] | – | – | – | – | 67% | 43% | 83% | 50% | –
CO/N=C(/C(=O)OC)c1cccc(C)c1CO/N=C(\CC(F)(F)F)c1cccc(C(F)(F)F)c1 [compound 250] | 90% | 80% | 90% | 90% | – | – | – | – | –
CNC(=O)/C(=N/OC)c1cccc(C)c1CO/N=C(\C)c1ccccc1CC(F)(F)F [compound 223] | 28% | 0% | 4% | 0% | – | – | – | – | –
CNC(=O)/C(=N/OC)c1cccc(C)c1CO/N=C(\C)c1ccc(-c2ccccc2)cc1OC(F)(F)F [compound 435] | – | – | – | – | 87% | 60% | 93% | 57% | –
CNC(=O)/C(=N/OC)c1cccc(C)c1CO/N=C(\C)c1c(F)cccc1OC(F)(F)F [compound 325] | 22% | 1% | 24% | 4% | – | – | – | – | –
CNC(=O)/C(=N/OC)c1cccc(C)c1CO/N=C(\C)c1cc(Cl)cc(C(F)(F)F)c1 [compound 228] | 22% | 2% | 5% | 0% | – | – | – | – | –
C#Cc1cc(F)c(F)c(/C(C)=N/OCc2c(C)cccc2/C(=N\OC)C(=O)NC)c1 [compound 243] | 37% | 1% | 4% | 0% | – | – | – | – | –
CNC(=O)/C(=N/OC)c1cccc(C)c1CO/N=C(\C)c1c(Cl)cc(Cl)cc1OC(F)(F)F [compound 428] | – | – | – | – | 83% | 20% | 70% | 11% | –
CNC(=O)/C(=N/OC)c1cccc(Br)c1CO/N=C(\C)c1ccccc1 [compound 396] | – | – | – | – | 4% | 0% | 3% | 0% | –
CNC(=O)/C(=N/OC)c1cccc(C)c1CO/N=C(\CC(F)(F)F)c1ccccc1C [compound 393] | – | – | – | – | 93% | 42% | 93% | 55% | –
CO/N=C(/C(=O)OC)c1cccc(C)c1CO/N=C(\C)c1cc(Cl)ccc1C(F)(F)F [compound 251] | 80% | 80% | 80% | 80% | – | – | – | – | –
CNC(=O)/C(=N/OC)c1cccc(C)c1CO/N=C(\C)c1ccc(OC(F)(F)F)cc1C(F)(F)F [compound 363] | 25% | 2% | 29% | 1% | – | – | – | – | –
CNC(=O)/C(=N/OC)c1cccc(C)c1CO/N=C(\C)c1ccc(OC(F)(F)F)cc1OC(F)(F)F [compound 349] | 97% | 35% | 97% | 50% | – | – | – | – | –
